Results taken from patent publication US10047107B2, “Small molecule analogs of E4orf1” (BOARD OF SUPERVISORS OF LOUISIANA STATE UNIVERSITY AND …, priority 2014, dated 2018).

Each compound was assayed on 3T3-L1 pre-adipocytes (assay: Glucose uptake (2-deoxy glucose uptake) by 3T3-L1 pre-adipocytes). Details: 5 μM compound, 24 hours exposure, 3T3-L1 pre-adipocytes, basal conditions, without serum starvation, 2-DG uptake.
Assay type: cell-based
Description: Glucose uptake by 3T3-L1 cells exposed to compounds 1-11 was determined at 5 μM concentration. Cells were exposed to compounds 1-11 for 24 hours and exposure to DMSO was used as the control group. 2-Deoxy glucose (2-DG) uptake was determined using the analog compounds without serum starving the cells prior to determining glucose uptake. Glucose uptake in 3T3-L1 pre-adipocytes was determined by exposing cells to compounds 1-11 for 24 hours without serum starvation. P values presented in the Table indicate statistical significance (p<0.05).

Row | SMILES | Percent increase in glucose uptake in comparison to DMSO treated Control
1 | N#CC(Nc1ccc([B-](F)(F)F)cc1)c1ccc(O)cc1.[K+] (centres unmarked) [Example 2, Potassium (4-((cyano(4-hydroxyphenyl)methyl)amino)phenyl)trifluoroborate] | No increase
2 | COc1cc(C(C#N)Nc2ccc([B-](F)(F)F)cc2)cc(OC)c1OC.[K+] (centres unmarked) [Example 8, Potassium (4-((cyano(3,4,5-trimethoxyphenyl)methyl)amino)phenyl) trifluoroborate] | 43%
3 | N#CC(Nc1ccc([B-](F)(F)F)cc1)c1ccc([B-](F)(F)F)cc1.[K+].[K+] (centres unmarked) [Example 11] | 53%

Same assay, conditions: Mus musculus, 3T3-L1, 24 h, read-out: Percent increase in glucose uptake in comparison to DMSO treated Control

Row | SMILES | activation at 5 µM
4 | N#CC(Nc1ccc([B-](F)(F)F)cc1)c1cccnc1 (centres unmarked) [Example 9, Potassium (4-((cyano(pyridin-3-yl)methyl)amino)phenyl)trifluoroborate] | 54%
5 | N#CC(Nc1ccc(O)cc1)c1ccc([B-](F)(F)F)cc1 (centres unmarked) [Example 10, Potassium (4-(cyano((4-hydroxyphenyl)amino)methyl)phenyl)trifluoroborate] | 31%

Same assay, conditions: Mus musculus; 5 μM compound, 24 hours exposure, 3T3-L1 pre-adipocytes, basal conditions, without serum starvation, 2-DG uptake; read-out: Percent increase in glucose uptake in comparison to DMSO treated Control

Row | SMILES | activation at 5 µM
6 | CC1(C)OB(c2ccc(NC(C#N)c3ccc(O)cc3)cc2)OC1(C)C (centres unmarked) [Example 1, 2-(4-hydroxyphenyl)-2-((4-(4,4,5,5-tetramethyl-1,3,2-dioxaborolan-2-yl)phenyl)amino)acetonitrile] | 24%
7 | CC1(C)OB(c2ccc(NC(C#N)c3cccnc3)cc2)OC1(C)C (centres unmarked) [Example 3, 2-(pyridin-3-yl)-2-((4-(4,4,5,5-tetramethyl-1,3,2-dioxaborolan-2-yl)phenyl)amino)acetonitrile] | 9%
8 | CC1=C(C(C#N)Nc2ccc(B3OC(C)(C)C(C)(C)O3)cc2)C(C)(C)CCC1 (centres unmarked) [Example 4, 2-((4-(4,4,5,5-tetramethyl-1,3,2-dioxaborolan-2-yl)phenyl)amino)-2-(2,6,6-trimethylcyclohex-1-en-1-yl)acetonitrile] | 33%
9 | CC1(C)OB(c2ccc(C(C#N)Nc3ccc(O)cc3)cc2)OC1(C)C (centres unmarked) [Example 5, 2-((4-hydroxyphenyl)amino)-2-(4-(4,4,5,5-tetramethyl-1,3,2-dioxaborolan-2-yl)phenyl)acetonitrile] | 73%
10 | CC1(C)OB(c2ccc(NC(C#N)c3ccc(B4OC(C)(C)C(C)(C)O4)cc3)cc2)OC1(C)C (centres unmarked) [Example 6, 2-(4-(4,4,5,5-tetramethyl-1,3,2-dioxaborolan-2-yl)phenyl)-2-((4-(4,4,5,5-tetramethyl-1,3,2-dioxaborolan-2-yl)phenyl)amino)acetonitrile] | 17%
11 | COc1cc(C(C#N)Nc2ccc(B3OC(C)(C)C(C)(C)O3)cc2)cc(OC)c1OC (centres unmarked) [Example 7, 2-((4-(4,4,5,5-tetramethyl-1,3,2-dioxaborolan-2-yl)phenyl)amino)-2-(3,4,5-trimethoxyphenyl)acetonitrile] | 41%
